What was measured:
[1] = Retrospective study of recurrent or de novo FSGS after renal transplantation: renal parameters pre-post treatment; format: in vivo, human; details: for Mean Foot Process Effacement, Mean Post ± SD / Proteinuria, Mean Post ± SD / Serum Creatinine, Mean Post ± SD: post-treatment; for Mean Foot Process Effacement, Mean Pre ± SD / Proteinuria, Mean Pre ± SD / Serum Creatinine, Mean Pre ± SD: pre-treatment
Procedure: Treatment with plasmapheresis (PXP) started at the time of FSGS recurrence or de novo manifesting by the onset or worsening of proteinuria. Subjects completed a median of 21 plasmapheresis sessions (IQR: 10-23). Twelve subjects were refractory to plasmapheresis and received adjunctive rituximab infusion. Eight (32%) subjects had complete remission, and an additional 12 (48%) individuals achieved partial remission. With treatment (Table 5), the overall mean serum creatinine improved from 3.1 mg/dl±2.3 mg/dl to 2.1 mg/dl±1.2 mg/dl (P=0.07), and the mean eGFR improved from 35.6 ml/min±19.4 ml/min to 46.0 ml/min±24.3 ml/min per 1.73 m^2 (P=0.01). Additionally, among responders the serum creatinine declined further from 3.1 mg/dl±2.5 mg/dl to 1.9 mg/dl±0.6 mg/dl (P=0.48).
We conducted a retrospective observational study of all adult renal transplant recipients who underwent renal transplantation between Jan. 1, 2003 to Dec. 31, 2011, and developed recurrent or de novo FSGS after kidney transplantation at a single tertiary hospital. We identified 105 renal transplant recipients aged 18 years and older. Ninety-three had native kidney biopsy-proven FSGS; 12 having a probable FSGS diagnosis. Twenty-five individuals developed de novo FSGS (n=4) and recurrent FSGS (n=21) following renal transplantation. Recurrent FSGS was defined by the presence of proteinuria (more than 1 g/24 hours) in individuals who were anuric prior to renal transplantation ([…]) or worsening proteinuria among those who were not anuric prior to renal transplantation (n=15). De novo FSGS was defined as the new onset of proteinuria following renal transplantation in a recipient whose primary cause of ESRD was not attributed to FSGS. The diagnosis was confirmed by the presence of podocyte foot process effacement on the allograft biopsy obtained prior to or within 14 days of treatment commencement. The Johns Hopkins University School of Medicine Institutional Review Board approved this study.
Socio-demographic and clinical data were abstracted from patient medical records using double data entry from the time of renal transplantation to three years following renal transplantation or the last available clinical follow-up. Donor clinical characteristics collected included donor vital status, relatedness to the recipient, and ABO-compatibility with recipient. Recipient clinical characteristics included age at FSGS diagnosis, primary cause of ESRD, number of prior renal transplantations, duration among those receiving dialysis, serum creatinine and proteinuria defined by urine protein-to-creatinine ratio. Glomerular filtration rate (eGFR) was estimated using the CKD-Epi equation which adjusts for age, gender, and race (Levey et al., Ann. Intern. Med. 150:604-612, 2009). Recipients were treated with plasmapheresis. Those with persistently significant proteinuria were also given one or two rituximab infusions. Complete response was defined by a decrease in proteinuria to below 1 g/g upon completion of the treatment course and/or on the last available quantification of proteinuria. Partial response to therapy was defined as a decline in proteinuria at the end of treatment by 50% from the peak proteinuria level, but with proteinuria remaining 1 g/g or greater at the end of treatment. Renal histopathology was assessed by a renal pathologist using light microscopy, immunofluorescence and electron microscopy. The degree of podocyte foot process effacement was based upon biopsy reports as well as secondary assessments of the electron microscopy by a second renal pathologist blinded to the original biopsy report and the recipient's outcome. These two assessments were then averaged to obtain the mean podocyte foot process effacement, which was categorized as <25% (mild), 25%-74% (moderate), and 75% or greater (severe). Baseline electron microscopy results were obtained from renal biopsies performed prior or shortly after the initiation of therapy. […]

[2] = cited from earlier work
[3] = Proteinuria (Up/c) and serum creatinine in FSGS-CT cohort by treatment arm; format: in vivo, human
Procedure: (§1) To explore the effect of treatment on suPAR levels in the circulation, samples were analyzed in patients who were randomly assigned to either the CSA or MMF/dexamethasone arm of the trial. At baseline, there was no difference between the two treatment arms in age at sampling, age at disease onset, gender, race, proteinuria, serum albumin, serum creatinine, or eGFR (FIG. 7) as well as circulating suPAR levels by univariate analysis. […] When examining the alteration from baseline to 26 weeks, suPAR level was increased in CSA arm, but decreased in MMF arm and the changes in suPAR levels between the two arms were significant (P<0.05).
FSGS-CT is a randomized controlled study that compared the efficacy of cyclosporine (CSA) to the combination of mycophenolate mofetil (MMF) and dexamethasone. Key inclusion criteria were age 2-40 years, eGFR>40 ml/min per 1.73 m^2, biopsy-proven FSGS, and resistance to corticosteroid therapy. Exclusion criteria included secondary FSGS, obesity, or prior experimental therapy. […] Subjects were seen 11 times during the treatment period and, at each visit, blood pressure was measured and blood and urine were obtained to determine serum creatinine, eGFR, albumin, cholesterol concentration, and proteinuria (Gipson et al., Kidney Int'l 80:868-878, 2011). […]

circulating suPAR [4] = assay: Circulating suPAR in PodoNet cohort by medication; format: in vivo, human; details: medication at time of blood sampling
Source text: In contrast to FSGS-CT, where patients were randomly assigned to either CSA or MMF therapy, treatment in PodoNet was at the discretion of the attending physicians. For the purpose of this analysis, patients were grouped according to the medication they received at the time of blood sampling: MMF or a calcineurin inhibitor. […] Overall, there was no significant difference between the two groups based on their demographic features or laboratory measurements (e.g., proteinuria, serum albumin, eGFR, and serum creatinine).
PodoNet is a consortium for clinical, genetic, and experimental study of steroid-resistant nephrotic syndrome (SRNS). The inclusion criteria are children (age 0-18 years old) with SRNS based on management protocols at the participating medical centers and adults with familial SRNS. Patients who were included into this study had biopsy proven FSGS (n=94). The treatment of subjects was clinically determined and managed by their attending physician.
(§2) The measurement of serum suPAR was performed using a Quantikine human uPAR immunoassay kit (R&D Systems).

circulating suPAR [5] = assay: Serum suPAR in FSGS-CT cohort by treatment arm; format: in vivo, human; details: for change in serum suPAR level from baseline to 26 weeks: FSGS-CT patients, MMF arm is MMF/dexamethasone
Procedure: as §1
FSGS-CT is a randomized controlled study that compared the efficacy of cyclosporine (CSA) to the combination of mycophenolate mofetil (MMF) and dexamethasone. Key inclusion criteria were age 2-40 years, eGFR>40 ml/min per 1.73 m^2, biopsy-proven FSGS, and resistance to corticosteroid therapy. Exclusion criteria included secondary FSGS, obesity, or prior experimental therapy. All subjects received lisinopril or losartan in those who were intolerant of angiotensin converting enzyme inhibitor. Subjects were treated for 52 weeks. The primary outcome was normalization of proteinuria defined as a urine protein:creatinine ratio (Up/c)<0.2 in a first morning urine sample after 52 weeks of active treatment with the study medication(s). The main secondary outcome was based on the level of proteinuria at 78 weeks, six months after discontinuation of the study drugs. Subjects were seen 11 times during the treatment period and, at each visit, blood pressure was measured and blood and urine were obtained to determine serum creatinine, eGFR, albumin, cholesterol concentration, and proteinuria (Gipson et al., Kidney Int'l 80:868-878, 2011). The serum samples collected at baseline (W01) and 26 weeks (W26) on treatment (n=35 in each arm) were retrieved from the NIDDK Biorepository for suPAR measurement.
as §2

PXP + rituximab: plasmapheresis (PXP) with adjunctive rituximab infusion in subjects refractory to plasmapheresis
Proteinuria, Most recent ([1]; overall, n = 12): 7 ± 12.7 g/g | Proteinuria, Peak ([1]; overall, n = 12): 12.5 ± 12.7 g/g | Mean Foot Process Effacement, Mean Post ± SD ([1]; overall, n = 10): 21 ± 27% | Proteinuria, Mean Post ± SD ([1]; overall, n = 12): 6.6 ± 12.5 g/g | Serum Creatinine, Mean Post ± SD ([1]; overall, n = 12): 2.1 ± 0.88 mg/dL | Mean Foot Process Effacement, Mean Pre ± SD ([1]; overall, n = 10): 49 ± 32% | Proteinuria, Mean Pre ± SD ([1]; overall, n = 12): 4.4 ± 3.1 g/g | Serum Creatinine, Mean Pre ± SD ([1]; overall, n = 12): 3 ± 2.7 mg/dL | Proteinuria, Last ([1]; responders, n = 9): 1.7 ± 1.2 g/g | Proteinuria, Peak ([1]; responders, n = 9): 7.6 ± 4.9 g/g | Mean Foot Process Effacement, Mean Post ± SD ([1]; responders, n = 7): 14 ± 14% | Proteinuria, Mean Post ± SD ([1]; responders, n = 9): 1.9 ± 1.4 g/g | Serum Creatinine, Mean Post ± SD ([1]; responders, n = 12): 2.1 ± 0.7 mg/dL | Mean Foot Process Effacement, Mean Pre ± SD ([1]; responders, n = 7): 34 ± 27% | Proteinuria, Mean Pre ± SD ([1]; responders, n = 9): 4.1 ± 3.4 g/g | Serum Creatinine, Mean Pre ± SD ([1]; responders, n = 12): 3 ± 2.96 mg/dL

O=C[C@H](O)[C@@H](O)[C@@H](O)[C@H](O)CO [galactose]
proteinuria outcome ([2]; dialysis-dependent patient (Savin et al., 2008)): no improvement of proteinuria | nephrotic syndrome outcome ([2]; oral galactose, patient resistant to corticosteroids, immunosuppression and plasmapheresis (De Smet et al., 2009)): remission for more than two years

COc1c(C)c2c(c(O)c1C/C=C(\C)CCC(=O)OCCN1CCOCC1)C(=O)OC2 [MMF, mycophenolate mofetil]
decrease in serum creatinine from baseline to 26 weeks, MMF arm compared to CSA arm ([3]; P<0.001): significantly greater decrease | decrease in Up/c from baseline to 26 weeks, MMF arm compared to CSA arm ([3]; P<0.05): significantly greater decrease | circulating suPAR level, patients who received the medication versus those who did not (circulating suPAR [4]): significantly lower | change in serum suPAR level from baseline to 26 weeks (circulating suPAR [5]): decreased | change in serum suPAR level from baseline to 26 weeks (circulating suPAR [5]; listed as mycophenolate mofetil): decreased significantly | serum suPAR level after treatment (circulating suPAR [5]; FSGS-CT, MMF-treated patients, mean ± SEM (±264), P<0.01): 4113 pg/mL | serum suPAR level before treatment (circulating suPAR [5]; FSGS-CT, MMF-treated patients, mean ± SEM (±292)): 5064 pg/mL

From patent publication US9867923B2, “Reducing soluble urokinase receptor in the circulation” (University of Miami, priority 2011, dated 2018)
